From US10159717B2, “Methods of treating cancer of the central nervous system” (Yeda Research and Development Co. Ltd., priority 2008, dated 2018)

How the values were obtained:
[1] = Stability of oxaloacetate solutions; format: physicochemical; conditions: cell culture medium
Method: To test the effect of oxaloacetate (OA) on glioma cells in vitro, C6 glioma cells were incubated with 1 mM oxaloacetate. Since oxaloacetate solutions are unstable, the cell culture medium was changed every day to allow the cells to be daily exposed to a fresh oxaloacetate solution.

C6 glioma = C6 glioma implanted in rat striatum, tumor growth followed by MRI; format: in vivo; conditions: 0.2M oxaloacetate in drinking water from day 7, MRI 10 days later, in average
Method: Male SPD&OLD rats weighing 260-280 g were used and placed in individual cages. All experiments were conducted according to the guidelines of the institutional animal care and use committee of the Weizmann Institute of Science, Rehovot, Israel.
Rat C6 glioma cells were grown in DMEM medium supplemented with 10% FCS. 10^7 cells were plated on 100×20 mm dishes and grown to 80% confluence for two days, passaged at a dilution of 1:10 after 1-2 min exposure to 0.25% trypsin and plated on 7 plates 60×15 mm. The cells were grown to 80% confluence for two additional days. The cells were then trypsynized as above, washed once with sterile PBS and centrifuged for 15 min at 1200 rpm. Prior to centrifugation, the cells were counted in a hemocytometer. Following centrifugation, the medium was removed and the cells were diluted in sterile PBS to a final concentration […] was injected immediately intracranially. For that purpose, the rats were anesthetized with 1.5% Halothane and placed in a stereotactic apparatus. […]
Experiments on live animals were conducted on a Bio spec Avance™ system (Bruker Biospin, Ettlingen, Germany) with a 4.7 T 30-cm horizontal bore magnet. […] The volume of the tumor was assessed using the Surdriver program.
After establishing that oxaloacetate has no effect on glioma growth when grown under in vitro conditions, the effect of same in vivo was determined. […]

stability of solutions [1]: unstable
Structure (SMILES): O=C(O)CC(=O)C(=O)O [oxaloacetate]
Tumor spread, less than that of untreated animals that received drinking water only (C6 glioma): at least 10 folds
